Experimental data as given in patent publication US20190054093A1, “TREATMENT OF SARCOPENIA WITH ECDYSTEROIDS” (priority 2014, published 2019).

Experiments:
C2C12 myotubes [1] = format: cell-based, mouse; conditions: dose response experiment; 16 h
Experimental: After cells reached 80-90% confluence (72 hours post-seeding) the media was replaced with differentiation media (DM): DMEM containing 2% horse serum (PAA; GE HealthCare), 10 mM Hepes (Lonza), 6 mM glutamine, 100 U/mL penicilin and 100 μgr/mL streptomycin (Biochrom). Media was replaced every 2 days, and after 10 days the myoblast has fused into multinucleated myotubes showing a fusion index of 70-80%.
Before cell treatment, a 2000× Botanicals Extracts Stocks solutions were prepared in Biological grade DMSO (Sigma) or Ultrapure H2O (milliQ; Millipore), sonicated for 30 min and Filtered using a 0.22 μm pore size syringe filter membrane (Millipore). […]
Protein synthesis was determined by measuring the incorporation of the tritiated L-Leucine (^3H-Leu) into C2C12 cellular proteins. […] Radioactivity was measured using a liquid scintillation counter (Tri-Carb, Perkin Elmer) and expressed as decay per minute (DPM). Total protein was quantified using Bradford method-based assay (microassay procedure) following the manufacturer's instructions (Biorad protein assay, BioRad Laboratories). Protein synthesis was calculated from the trichloroacetic acid-insoluble radioactivity incorporated per microgram of total protein. Results were expressed as relative increase in L-[3H]-Leucine compared with 100% of not treated Control. […]

[2] = test system: Primary human skeletal muscle cells; assay: Protein synthesis by radio-labeled leucine incorporation in human skeletal myotubes (Example 3); conditions: 100 nM, 24 h of treatment
Experimental: Primary human skeletal muscle cells (a gift from Dr. William Cefalu of the Pennington Biomedical Research Center, Baton Rouge, La.) were seeded at a density of 10^5 cells/cm2 onto 24-well tissue culture plates. The cells were grown in DMEM supplemented with 10% FBS and a SingleQuot Kit (Lonza, Portsmouth, N.H.) containing epidermal growth factor, insulin, bovine serum albumin (BSA), fetuin, dexamethasone, and gentamicin/amphotericin-B. Cells were grown for 96 h in 5% CO2 at 37° C. until they reached 80% confluency, and the medium was replaced with differentiation medium (DMEM with 2% horse serum). After 18 days, myoblasts fused into multinucleated myotubes. […] Additionally, extracts of spinach or Ajuga turkestanica were also added. Radio-labeled leucine was used to assess any changes in protein synthesis. Decays per minute (DPM) were measured in a liquid scintillation counter (LS 6500, Beckman Coulter). Total protein was quantified using the bicinchoninic acid (BCA) method following the manufacturer's instructions (Pierce, Rockford, Ill.). The data were expressed as DPM per milligram of total protein.

C2C12 myotubes [3] = assay: Protein synthesis by radio-labeled leucine incorporation in C2C12 myotubes (Example 3); format: cell-based, mouse
[4] = rats fed 5 mg/kg BW for 7 days; 20HE derived from Rhaponticum carthamoides; cited from earlier work
[5] = biological target: T1, recombinant rat androgen receptor (Rattus norvegicus, UniProt P15207); assay: Androgen receptor binding assay, displacement of [3H]mibolerone; conditions: concentrations of 1 to 100 μM
T1 sequence (P15207 1-902): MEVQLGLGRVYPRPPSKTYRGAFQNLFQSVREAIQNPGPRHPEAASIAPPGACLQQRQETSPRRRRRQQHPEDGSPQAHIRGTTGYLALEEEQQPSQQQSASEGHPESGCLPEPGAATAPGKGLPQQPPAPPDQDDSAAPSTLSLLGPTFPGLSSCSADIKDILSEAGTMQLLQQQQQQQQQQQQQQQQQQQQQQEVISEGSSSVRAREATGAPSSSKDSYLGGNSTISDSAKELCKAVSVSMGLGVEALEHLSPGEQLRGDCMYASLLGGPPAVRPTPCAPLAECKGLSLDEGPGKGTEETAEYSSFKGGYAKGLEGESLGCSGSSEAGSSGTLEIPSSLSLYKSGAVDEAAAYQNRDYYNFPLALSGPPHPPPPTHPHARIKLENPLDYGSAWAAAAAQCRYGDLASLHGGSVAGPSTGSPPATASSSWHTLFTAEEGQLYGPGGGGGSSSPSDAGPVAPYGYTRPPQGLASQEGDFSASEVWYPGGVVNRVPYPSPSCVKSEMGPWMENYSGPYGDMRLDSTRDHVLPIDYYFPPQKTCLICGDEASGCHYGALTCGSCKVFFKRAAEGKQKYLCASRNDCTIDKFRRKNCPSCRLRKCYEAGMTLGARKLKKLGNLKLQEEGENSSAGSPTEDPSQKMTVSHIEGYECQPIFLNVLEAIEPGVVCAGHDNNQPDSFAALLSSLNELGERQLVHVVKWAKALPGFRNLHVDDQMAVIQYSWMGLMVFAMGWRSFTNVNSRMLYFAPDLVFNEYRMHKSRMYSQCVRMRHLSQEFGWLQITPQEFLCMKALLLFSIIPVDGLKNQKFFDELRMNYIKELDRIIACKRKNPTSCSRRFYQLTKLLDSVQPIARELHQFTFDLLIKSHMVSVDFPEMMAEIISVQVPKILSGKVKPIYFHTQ
Experimental: Briefly, recombinant rat androgen receptor was combined with [3H]mibolerone in a buffer of 50 mM Tris-HCl, pH 7.5, 0.8 M NaCl, 10% glycerol, 2 mM dithiothreitol, 1 mg/mlL BSA, and 2% ethanol. DPM of the incubation buffer was measured to quantify displacement of the labeled ligand.

[6] = test system: Caspase-3 expression in C2C12 myotubes; assay: Caspase 3 expression in C2C12 myotubes (quantitative RT-PCR, Example 4); format: cell-based, mouse; conditions: 24 hours; extracts and turkesterone 0.002, 0.02 and 2 ppm, 20HE 0.001, 0.01 and 1 ppm
Experimental: Experiments similar to those in example 1 have been carried out with two other plant-derived, ecdysteroid-rich extracts. […] Cells between passages 3 and 10 were seeded at a density of 10,000 cells per cm^2. Cells were grown for 48 h until they reached 80-90% confluence. […] Cells were maintained at 37° C. in a humidified 5% CO2 incubator and medium was changed every other day.
For RNA and protein extraction C2C12 myotubes were incubated with 0.002, 0.02 and 2 ppm of Rhaponticum carthamoides extract (RCE) and Cyanotis arachnoidea extract (CAE) or 0.001, 0.01 and 1 ppm of 20-hydroxyecdysone or 0.002, 0.02 and 2 ppm of Turkesterone for 24 hours. These two latter served as positive controls. RNA and protein were extracted using All Prep RNA/Protein Kit (Qiagen, Spain). RNA was stored at −80° C. and protein at −20° C. until further use. Total RNA was quantified using a fluorometric method with Quant-iT kit (Invitrogen, Spain). The cDNA was reverse-transcribed from the RNA extract using RT^2First Stand cDNA kit (Qiagen, Spain). Quantitative real-time RT-PCR for Caspase-3 and Myostatin were carried out using a MX3005P Q-PCR System (Agilent Technologies) and SYBR-Green/ROX detection. The housekeeping gene used was Actb and Mouse XpressRef Universal total RNA (Qiagen, Spain) as a positive control. […] The fold change in gene expression was calculated with ΔΔCt Method.

CC(C)(O)CC[C@@H](O)[C@](C)(O)[C@H]1CC[C@@]2(O)C3=CC(=O)[C@@H]4C[C@@H](O)[C@@H](O)C[C@]4(C)[C@H]3CC[C@]12C [Example 20HE, 20-hydroxyecdysone]
protein synthesis versus the control group (C2C12 myotubes [1]): statistically significant increase
protein synthesis, % of control [2]: 120 % of control
protein synthesis, % of control (C2C12 myotubes [3]; 40 nM): 110 % of control
protein synthesis, % of control (peak effect) (C2C12 myotubes [3]; 0.1 μM): 120 % of control
weight of liver, heart, kidneys and the tibialis anterior muscle [4]: increases
inhibition of [3H]mibolerone binding [5]: did not show any significant inhibition
regulation of Caspase 3 expression [6]: significant effect in down regulation
